Experimental data from patent US20050112573A1, “Method of detecting toxic substance” (priority 2001, published 2005).

System: yeast genes (level of expressed mRNA)
Assay: DNA chip analysis of expressed mRNA of yeast genes after 2 h culture with a toxic chemical substance
Format: cell-based, Saccharomyces cerevisiae S288C
Method: Yeast (Saccharomyces cerevtisiae S288C (α SUC2mal mel gap2 CUP1)) were cultured at 25° C. on YPD medium (yeast extract 1%, polypepton 2%, glucose 2%). One of toxic chemical substances was added to the cell at logarithmic growth phase, and the cell was further cultured for two hours. Cell was cultured without any chemical substance in the same condition, and was used as control. Concentrations of the chemical substances were defined to inhibit the growth of the yeast but not lead to death.
After the completion of cultivation, the culture was centrifuged to collect the cells. To the cells, sodium acetate buffer (50 mM sodium acetate, 10 mM EDTA, 1% SDS) was added, and the mixture was shaken at 65° C. for five minutes, followed by returning to room temperature, and obtaining the supernatant, which procedure was repeated two times. To the supernatant, ½ amount of a solution of phenol/chloroform was added, and the mixture was centrifuged to give a supernatant, which was added with an equal amount of chloroform, and the mixture was centrifuged to give a supernatant. To the supernatant, an equal amount of isopropanol containing 0.3 M sodium acetate was added, and the mixture was allowed to stand at room temperature for 30 minutes, after which the mixture was centrifuged to give a sediment of the whole RNAs. Seventy % ethanol was added to the sediment, and the mixture was again centrifuged to give a sediment, which was then dried and dissolved in water. mRNA was isolated from the whole RNAs as followings. In view of the fact that a poly A chain is attached to the 3′ terminus of mRNA, a polynucleotide having a poly T structure which was immobilized on the surface of latex beads was used to trap the mRNA, and then the mRNA was washed and eluted with spine column (Oligotex-dT30<Super>mRNA Purification Kit, Takara). Reverse transcription of the mRNA was conducted with a reverse transcriptase (Super Script II Reverse Transcriptase; catalogue No. 18064-014, GibcoBRL) using fluorescence-labeled nucleotides to give cDNAs that were introduced with Cy3-dUTP or Cy5-dUTP during the reverse transcription.
The labeled cDNAs were dissolved in TE buffer (10 mM Tris-HCl/1 mM EDTA, pH8.0), and the solution was dropped on the DNA chip containing the whole genes of yeast (DNA Chip Research Inc. Japan) so that the cDNAs were hybridized on the DNA chip at 65° C. for over 12 hours. The fluoresces intensity of the DNA chip was read with a scanner, and the ratio relative to the fluorescence intensity resulting from the absence of chemical substance was estimated as the following, which is shown in Tables 1 to 9: [formula]
In the Tables, “Intensity” indicated in the rightmost column is a value of the level of expressed mRNA of each gene in control cells as divided by the average level of the expressions of the whole genes.

S=C([S-])NCCNC(=S)[S-].[Zn+2] [(11), zinc N,N′-ethylenebis(dithiocarbamate)]
The level of expressed mRNA in the presence of chemical substance/absence: YDR128W (gene YDR128W): 0.3
The level of expressed mRNA in the presence of chemical substance/absence: YDR133C (gene YDR133C): 1.3
The level of expressed mRNA in the presence of chemical substance/absence: YDR140W (gene YDR140W): 1.7
The level of expressed mRNA in the presence of chemical substance/absence: YDR221W (gene YDR221W): 0.7
The level of expressed mRNA in the presence of chemical substance/absence: YDR250C (gene YDR250C): 0.6
The level of expressed mRNA in the presence of chemical substance/absence: YDR271C (gene YDR271C): 0.6
The level of expressed mRNA in the presence of chemical substance/absence: YDR278C (gene YDR278C): 0.4
The level of expressed mRNA in the presence of chemical substance/absence: YDR281C (gene YDR281C): 0.8
The level of expressed mRNA in the presence of chemical substance/absence: YDR316W (gene YDR316W): 1.3
The level of expressed mRNA in the presence of chemical substance/absence: YDR338C (gene YDR338C): 1.9
The level of expressed mRNA in the presence of chemical substance/absence: YDR366C (gene YDR366C): 1.7
level of expressed mRNA in the presence of chemical substance/in its absence (gene YDR380W): 0.4
level of expressed mRNA in the presence of chemical substance/in its absence (gene YDR410C): 1.6
The level of expressed mRNA in the presence of chemical substance/absence: YDR421W (gene YDR421W): 1.0
The level of expressed mRNA in the presence of chemical substance/absence: YDR425W (gene YDR425W): 0.9
The level of expressed mRNA in the presence of chemical substance/absence: YDR485C (gene YDR485C): 0.9
level of expressed mRNA in the presence of chemical substance/in its absence (gene YDR487C): 2.1
level of expressed mRNA in the presence of chemical substance/in its absence (gene YDR502C): 1.3
The level of expressed mRNA in the presence of chemical substance/absence: YDR504C (gene YDR504C): 1.2
level of expressed mRNA in the presence of chemical substance/in its absence (gene YEL011W): 3.7
level of expressed mRNA in the presence of chemical substance/in its absence (gene YEL020C): 1.3
The level of expressed mRNA in the presence of chemical substance/absence: YEL044W (gene YEL044W): 1.6
level of expressed mRNA in the presence of chemical substance/in its absence (gene YER026C): 0.9
level of expressed mRNA in the presence of chemical substance/in its absence (gene YER069W): 1.5
The level of expressed mRNA in the presence of chemical substance/absence: YER092W (gene YER092W): 0.9
The level of expressed mRNA in the presence of chemical substance/absence: YER182W (gene YER182W): 1.5
The level of expressed mRNA in the presence of chemical substance/absence: YFL042C (gene YFL042C): 5.4
level of expressed mRNA in the presence of chemical substance/in its absence (gene YFR015C): 3.9
The level of expressed mRNA in the presence of chemical substance/absence: YFR026C (gene YFR026C): 0.8
The level of expressed mRNA in the presence of chemical substance/absence: YFR056C (gene YFR056C): 1.3
level of expressed mRNA in the presence of chemical substance/in its absence (gene YGL001C): 1.6
level of expressed mRNA in the presence of chemical substance/in its absence (gene YGL022W): 0.8
level of expressed mRNA in the presence of chemical substance/in its absence (gene YGL039W): 1.1
The level of expressed mRNA in the presence of chemical substance/absence: YGL041C (gene YGL041C): 0.6
The level of expressed mRNA in the presence of chemical substance/absence: YGL045W (gene YGL045W): 1.2
The level of expressed mRNA in the presence of chemical substance/absence: YGL057C (gene YGL057C): 1.3
The level of expressed mRNA in the presence of chemical substance/absence: YGL088W (gene YGL088W): 0.8
level of expressed mRNA in the presence of chemical substance/in its absence (gene YGL104C): 1.8
level of expressed mRNA in the presence of chemical substance/in its absence (gene YGL126W): 1.0
level of expressed mRNA in the presence of chemical substance/in its absence (gene YGL134W): 1.1
level of expressed mRNA in the presence of chemical substance/in its absence (gene YGL154C): 0.9
The level of expressed mRNA in the presence of chemical substance/absence: YGL183C (gene YGL183C): 0.8
level of expressed mRNA in the presence of chemical substance/in its absence (gene YGL209W): 0.8
The level of expressed mRNA in the presence of chemical substance/absence: YGL223C (gene YGL223C): 1.3
level of expressed mRNA in the presence of chemical substance/in its absence (gene YGL253W): 1.0
The level of expressed mRNA in the presence of chemical substance/absence: YGR038W (gene YGR038W): 1.4
level of expressed mRNA in the presence of chemical substance/in its absence (gene YGR060W): 0.8
The level of expressed mRNA in the presence of chemical substance/absence: YGR139W (gene YGR139W): 0.9
The level of expressed mRNA in the presence of chemical substance/absence: YGR156W (gene YGR156W): 0.5
The level of expressed mRNA in the presence of chemical substance/absence: YGR198W (gene YGR198W): 1.0
The level of expressed mRNA in the presence of chemical substance/absence: YGR210C (gene YGR210C): 1.0
The level of expressed mRNA in the presence of chemical substance/absence: YGR211W (gene YGR211W): 0.8
The level of expressed mRNA in the presence of chemical substance/absence: YGR237C (gene YGR237C): 1.6
The level of expressed mRNA in the presence of chemical substance/absence: YGR243W (gene YGR243W): 1.7
The level of expressed mRNA in the presence of chemical substance/absence: YGR250C (gene YGR250C): 1.6
The level of expressed mRNA in the presence of chemical substance/absence: YGR266W (gene YGR266W): 1.2
The level of expressed mRNA in the presence of chemical substance/absence: YGR277C (gene YGR277C): 1.2
